Data set [1] is described as follows: Determination of percentage erosion of core tablet. It counts as physicochemical. The following applies: 3 hours in water at 37° C.; for Percentage erosion (%) of compression-coated tablet containing Compound 1: core: 9 parts Compound 1 solid dispersion + 6 parts of the filler; for Percentage erosion (%) of compression-coated tablets containing acetaminophen: core: 5 parts acetaminophen + 10 parts of the filler. The procedure:
A compression-coated tablet containing drug is made in accordance with the method of producing a timed-release compression-coated solid composition disclosed in the present invention, the tablet is moistened for 3 hours in water at 37° C., then the gelled part of the tablet is peeled off and the portion of the core tablet that has not eroded is removed. The core tablet is allowed to dry overnight in a dryer at 40° C. and weight is determined. The value obtained by subtracting dry weight from initial core tablet weight and dividing this by initial core weight is multiplied by 100 to calculate the percentage erosion.
The percentage erosion of the core tablet of both of the above-mentioned pharmaceutical preparations was determined in accordance with the previously described method of determining the percentage erosion of the core tablet.
Then 6 parts by weight of each filler were added to 9 parts by weight of the solid dispersion and mixed with a mortar and pestle. A core tablet of 150 mg per tablet with a diameter of 6.5 mm was obtained under compression force of 500 kg/punch using an oil press. Moreover, 10 parts by weight of each filler were separately added to 5 parts by weight acetaminophen (Yoshitomi Seiyaku) and mixed with a mortar and pestle and core tablets of 150 mg per tablet with a diameter of 6.5 mm were obtained under compression force of 500 kg/punch using an oil press. Furthermore, 75 mg polyethylene oxide (Polyox® WSR303) and 175 mg Macrogol 6000 were mixed with a mortar and pestle as the outer layer. […] This tablet was immersed for 3 hours in water at 37° C. and then the gelated part of the tablet was peeled off and the uneroded core was removed. The core was dried in a dryer overnight at 40° C. and then weighed. The percentage erosion of the core tablet was calculated from the dry weight and initial weight.

Data set [2] can be described thus: Solubility of each filler (amount of water needed to dissolve 1 g filler).
Data set [3] deals with CYP3A4. Kind of data set: Test Example 5: midazolam plasma concentration in dogs with concomitant Compound 1. The note with it: Experiment 1, midazolam singular administration, oral 4 mg/dog, n=6.
In data set [4] the test system is CYP3A4. Kind of data set: Test Example 7: midazolam plasma concentration in dogs with concomitant ketoconazol. The note with it: aqueous solution containing ketoconazol with midazolam.

Molecules are shown by their SMILES.

`O=C1O[C@H]([C@@H](O)CO)C(O)=C1O` [Ascorbic acid]: the “Percentage erosion (%) of compression-coated tablet containing Compound 1” value in data set [1] is on record as 32.4%.
Turning to `N[C@@H](CC(=O)O)C(=O)O` [Aspartic acid], in data set [1], the “Percentage erosion (%) of compression-coated tablet containing Compound 1” value amounted to 1.4%.
As for `O=C(O)CC(O)(CC(=O)O)C(=O)O` [Citric acid], the “Percentage erosion (%) of compression-coated tablet containing Compound 1” value in data set [1] is 60.3%.
Regarding `O=C(O)/C=C/C(=O)O` [Fumaric acid], the “Percentage erosion (%) of compression-coated tablet containing Compound 1” value in data set [1] is reported as 2.0%. For the same compound, in data set [2] (Table 3), the Solubility of filler is more than 10 mL.
With `OC[C@H]1O[C@@H](O[C@H]2[C@H](O)[C@@H](O)C(O)O[C@@H]2CO)[C@H](O)[C@@H](O)[C@H]1O` (some centres unmarked) [Lactose], in data set [1], the “Percentage erosion (%) of compression-coated tablets containing acetaminophen” value stood at 7.6% and the “Percentage erosion (%) of compression-coated tablet containing Compound 1” value came out at 24.0%.
`O=C(O)CC(O)C(=O)O` (centres unmarked) [Malic acid]: in data set [1], the “Percentage erosion (%) of compression-coated tablets containing acetaminophen” value was found to be 79.3% and the “Percentage erosion (%) of compression-coated tablet containing Compound 1” value was 75.0%. This compound also registered a Solubility of filler in data set [2] (Table 3) of 2 mL. The same compound registered a Solubility of filler in data set [2] (Table 4) of 2 mL.
Take `Cc1ncc2n1-c1ccc(Cl)cc1C(c1ccccc1F)=NC2` [Midazolam, midazolam]: the “Mean AUC of midazolam plasma concentration” value in the data set with CYP3A4 [3] is 9.0 ± 6.0 ngh/ml.
Take `O=C(O)CCC(=O)O` [Succinic acid]: in data set [1], the “Percentage erosion (%) of compression-coated tablets containing acetaminophen” value is on record as 12.8% and the “Percentage erosion (%) of compression-coated tablet containing Compound 1” value is reported as 19.2%.
Turning to `OC[C@H]1O[C@@](CO)(O[C@H]2O[C@H](CO)[C@@H](O)[C@H](O)[C@H]2O)[C@@H](O)[C@@H]1O` [Sucrose], in data set [1], the “Percentage erosion (%) of compression-coated tablets containing acetaminophen” value is on record as 56.1% and the “Percentage erosion (%) of compression-coated tablet containing Compound 1” value came out at 48.4%. For the same compound, the Solubility of filler in data set [2] (Table 3) was determined as 1 mL. Further, the Solubility of filler in data set [2] (Table 4) turned out to be 1 mL.
For the compound `O=C(O)C(O)C(O)C(=O)O` (centres unmarked) [Tartaric acid], the “Percentage erosion (%) of compression-coated tablet containing Compound 1” value in data set [1] was determined as 65.7%.
On to `CC(=O)N1CCN(c2ccc(OCC3COC(Cn4ccnc4)(c4ccc(Cl)cc4Cl)O3)cc2)CC1` (centres unmarked) [ketoconazol], for which the “increase of average midazolam AUC compared to midazolam singular administration” value with CYP3A4 [4] is recorded as not above 4 times.
